Test results: ChEMBL document CHEMBL1201862, “PubChem BioAssay data set” (2004)
The source made the active and inactive calls.

Legend:
cells [1] = conditions: A549
[2] = Concentration-dependent survival of SW480 colon cancer line, luminescence detection with CellTiter-Glo, half-maximal inhibitory concentration (AID 1117338); assay type: functional
[3] = RKO cell viability reduction, dose response, CellTiter-Glo luminescence (AID 1117322); assay type: functional
[4] = cytotoxicity toward HCT116 cells – cell-based, CellTiter-Glo luminescence, IC50, dose response (AID 1117332); assay type: functional; conditions: HCT-116
[5] = SNU-C1 cell viability reduction, dose response, CellTiter-Glo luminescence (AID 1117323); assay type: functional, cell-based
[6] = cytotoxicity toward Colo320 cells – cell-based, CellTiter-Glo luminescence, IC50, dose response (AID 1117334); assay type: functional; conditions: COLO 320
[7] = cytotoxicity toward HT-29 cells – cell-based, CellTiter-Glo luminescence, IC50, dose response (AID 1117330); assay type: functional
[8] = CellTiter-Glo luminescent dose response of DLD-1 viability loss (AID 1117352); assay type: functional
[9] = Dose-response inhibition of insulin secretion in a rat insulinoma line at 5 mM glucose (AID 1117331); assay type: functional, cell-based; conditions: INS-1E
[10] = biological target: Endoplasmic reticulum aminopeptidase 1 (Homo sapiens, UniProt Q9NZ08); test: ERAP1 aminopeptidase inhibitors, dose response, biochemical, cherry-pick, set 2, plate reader (AID 743314)
Kallikrein-7 = Kallikrein-7 (Homo sapiens, UniProt P49862); test: Fluorescence Intensity-based biochemical primary high throughput dose response assay to identify activators of kallikrein-7 (K7) zymogen.
[11] = biological target: T1, Corticotropin-releasing factor receptor 2/Corticotropin-releasing factor-binding protein (Homo sapiens, UniProt P24387+Q13324); test: Dose Response confirmation of uHTS hits for small molecule antagonists of the CRF-binding protein and CRF-R2 receptor complex.; assay type: functional; conditions: read-out: IC50_Mean
T1 sequence (Q13324 whole entry): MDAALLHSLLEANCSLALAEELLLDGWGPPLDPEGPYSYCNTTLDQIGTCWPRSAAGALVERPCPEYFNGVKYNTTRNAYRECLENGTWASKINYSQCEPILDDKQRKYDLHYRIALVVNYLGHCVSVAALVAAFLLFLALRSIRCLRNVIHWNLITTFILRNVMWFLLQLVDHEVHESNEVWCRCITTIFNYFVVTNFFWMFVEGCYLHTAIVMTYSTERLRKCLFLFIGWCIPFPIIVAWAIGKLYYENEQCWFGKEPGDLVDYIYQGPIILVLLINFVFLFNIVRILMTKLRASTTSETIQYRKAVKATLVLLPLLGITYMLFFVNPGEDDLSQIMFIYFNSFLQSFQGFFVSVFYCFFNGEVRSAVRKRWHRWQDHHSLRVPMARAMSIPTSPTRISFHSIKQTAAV
T1 sequence (P24387 whole entry): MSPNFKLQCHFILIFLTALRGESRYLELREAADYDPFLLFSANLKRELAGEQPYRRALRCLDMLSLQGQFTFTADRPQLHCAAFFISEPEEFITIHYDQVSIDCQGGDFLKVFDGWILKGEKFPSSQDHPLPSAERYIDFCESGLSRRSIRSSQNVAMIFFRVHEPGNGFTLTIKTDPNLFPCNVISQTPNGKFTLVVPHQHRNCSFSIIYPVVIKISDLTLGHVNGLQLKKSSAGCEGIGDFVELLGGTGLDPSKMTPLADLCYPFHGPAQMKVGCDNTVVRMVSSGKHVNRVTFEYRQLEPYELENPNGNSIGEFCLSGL

[12] = biological target: T1, Corticotropin-releasing factor receptor 2/Corticotropin-releasing factor-binding protein; test: activators of CRF receptor 2 with binding protein – uHTS hits, confirmation (AID 602473); assay type: functional; conditions: read-out: EC50_Mean
[13] = P. falciparum late gametocyte killing, dose response, luminescence (AID 1117278); assay type: functional, cell-based;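 also: gametocytes exposed to compound for 24 hours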
[14] = Jurkat T cell cytotoxicity, dose response, cytotoxicity control for P. falciparum gametocyte viability project, luminescence (AID 1117277); assay type: functional, cell-based;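 also: potency reflects loss of cellular ATP meaning fewer viable cells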
[15] = biological target: Disintegrin and metalloproteinase domain-containing protein 17 (Homo sapiens, UniProt P78536); test: exosite inhibitors of ADAM17, dose response, biochemical (AID 743260)
[16] = ADAM10 protease inhibitors, dose response, selectivity assay for ADAM17 exosite inhibitor project, biochemical, FRET peptide substrate, recombinant human ADAM10 (AID 743259);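 also: ADAM10 enzyme cleaving a FRET peptide substrate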
Paired box protein Pax-8 = Paired box protein Pax-8 (Homo sapiens, UniProt Q06710); test: inhibitors of PAX8-driven TPO luciferase reporter, dose response, RMG-I cells, cherry-pick (AID 687027); assay type: functional, cell-based;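 also: luciferase reporter driven by Pax8 target thyroperoxidase promoter measured by SteadyGlo luminescence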
[17] = NIH:OVCAR-3 ovarian cancer cell cytotoxicity, dose response, PAX8 inhibitor project, plate reader, dry powder samples (AID 743044); assay type: functional, cell-based
[18] = non-specific cell cytotoxicity, dose response, cytotoxicity control for PAX8 inhibitor project, plate reader, dry powder samples (AID 743021); assay type: functional, cell-based
[19] = cytotoxicity in OVCAR8 ovarian cancer cells, dose response, PAX8 project, cell-based, plate reader, dry powder samples (AID 743197); assay type: functional; conditions: OVCAR-8
[20] = biological target: Peroxisome proliferator-activated receptor gamma/Nuclear receptor coactivator 1 (Homo sapiens, UniProt P37231); test: (§1) TR-FRET dose response biochemical High Throughput Screening assay for agonists of the steroid receptor coactivator 1 (SRC-1) recruitment by the peroxisome proliferator-activated receptor gamma (PPAR gamma): non-selective agonists. [Related pubchem assays (depositor defined):AID1300, AID1808, AID504735, AID631]; assay type: protein assay
[21] = biological target: Peroxisome proliferator-activated receptor gamma/Nuclear receptor coactivator 3 (Homo sapiens, UniProt P37231); test: as §1, with “3 (SRC-3)” for “1 (SRC-1)”, “assays: 1301 (Confirmation screen.), 1048 (Primary screen.)]” for “assays (depositor defined):AID1300, AID1808, AID504735, AID631]”; assay type: functional
[22] = biological target: Peroxisome proliferator-activated receptor gamma/Nuclear receptor coactivator 2 (Homo sapiens, UniProt P37231); test: TR-FRET dose response biochemical High Throughput Screening assay for agonists of the steroid receptor coactivator 2 (SRC-2) recruitment by the peroxisome proliferator-activated receptor gamma (PPAR gamma): non-selective agonists. [Related pubchem assays: 1297, 1032 ]; assay type: functional
[23] = biological target: Mitogen-activated protein kinase 10 (Homo sapiens, UniProt P53779); test: Dose response biochemical screening assay for inhibitors of c-Jun N-Terminal Kinase 3 (JNK3). [Related pubchem assays: 746 ]
Major prion protein = Major prion protein (Homo sapiens, UniProt P04156); assay type: functional, cell-based
cells [24] = test: cells

In the case of `COc1cc(C2C3=C(CC(C)(C)CC3=O)N(C)C3=C2C(=O)CC(C)(C)C3)cc(Br)c1O`, the AC50 (cells [1]) is reported as > 52 µM (inactive).
In the case of `Cc1onc(-c2ccccc2)c1-c1ccc(S(N)(=O)=O)cc1` [VALDECOXIB], the IC50 [2] is reported as > 20 µM (inactive), the IC50 [3] is reported as > 20 µM (inactive) and the IC50 [4] is reported as > 20 µM (inactive). For the same compound, the IC50 [5] was > 20 µM (inactive), the IC50 [6] was > 20 µM (inactive) and the IC50 [7] was > 20 µM (inactive). The IC50 [8] was > 20 µM (inactive).
With `CCCC(CCC)C(=O)O` [VALPROIC ACID] the IC50 [9] was > 33.3 µM (inactive).
In the case of `COCC(=O)N1[C@@H]2c3ccc(/C=C/c4ccccc4)c(=O)n3C[C@H]1[C@H](CO)[C@H]2C(=O)N1CCOCC1`, the AC50 [10] is reported as 4.85 µM (active).
In the case of `Cc1cccc(/C=N/c2ccccc2C(N)=O)c1`, the EC50 (Kallikrein-7) is reported as > 69.5 µM (inactive).
With `C/C(=N\NC(=O)CC#N)c1cc2ccc(O)cc2oc1=O` the AC50 [10] was 6.38 µM (active).
For `CCCc1n[nH]c(SCc2ccc(Cl)cc2Cl)n1`, the IC50 [11] was > 47.1 µM (inactive), the EC50 [12] was > 53 µM (inactive) and the IC50 [13] was > 109 µM (inactive). For the same compound, the IC50 [14] was > 83.3 µM (inactive).
In the case of `CC(=O)n1cc([C@@H]2C=C(C(=O)Nc3ccccc3)O[C@H](OCc3ccc(CO)cc3)C2)c2ccccc21`, the IC50 [15] is reported as > 69.5 µM (inactive) and the IC50 [16] is reported as > 69.5 µM (inactive).
For `CN(C)CC(=O)N1CCCCN2[C@H](CO)[C@H](c3ccc(/C=C/c4ccccc4)cc3)[C@H]2C1`, the AC50 (Paired box protein Pax-8) was 9.31 µM (active), the AC50 [17] was 47.6 µM (active) and the AC50 [18] was 42.9 µM (active). The AC50 [19] was 69.1 µM (active).
For `Cc1ccccc1-c1nnc(S)o1`, the EC50 [20] was 71.9 µM (inactive), the EC50 [21] was > 79.4 µM (not active) and the EC50 [22] was 9.69 µM (active). The IC50 [23] was 55.5 µM (not active), the IC50 (Major prion protein) was 5.75 µM (active) and the IC50 (cells [24]) was > 138 µM (inactive).
With `N#Cc1c(O)nc(SCc2ccc(F)cc2)nc1-c1ccco1` the IC50 [23] was 13.6 µM (not active), the IC50 (Major prion protein) was 1.02 µM (active) and the IC50 (cells [24]) was > 138 µM (inactive).
